In US10792289B2 (Horizon Orphan LLC, priority 2009, dated 2020):

Test system: P. aeruginosa
Experiment: Phase 2 study: P. aeruginosa density in sputum
Format: in vivo, Pseudomonas aeruginosa
Conditions: MITT; for Reduction in P. aeruginosa density in sputum: median Day 1 to Day 28
Description: The following dosage regimens (as nebulizer loaded doses) were evaluated: 120 mg QD (daily); 240 mg QD (daily); and 240 mg BID (twice daily).
Patients were assessed on Day 1, 7, 14, and 28, and then up to 28 days after completion of study drug, namely, Days 42 and 56. The end of the study was defined as the last visit of the last patient.
Efficacy was evaluated by microbiologic assessment of sputum samples, time to need for anti-pseudomonal antimicrobials, the Cystic Fibrosis Questionaire-Revised (CFQ-R), and pulmonary function tests. […] Pair-wise comparisons between all the treatment arms were conducted as secondary analyses.

[1] = combined 240 mg QD and BID, Baseline to Day 7
[2] = combined 240 mg QD and BID, Baseline to Day 14
[3] = combined 240 mg QD and BID, Baseline to Day 28
[4] = combined 240 mg QD and BID, Day 1
[5] = combined 240 mg QD and BID, Day 7
[6] = combined 240 mg QD and BID, Day 14
[7] = combined 240 mg QD and BID, Day 28

C[C@H]1COc2c(N3CCN(C)CC3)c(F)cc3c(=O)c(C(=O)O)cn1c23 [Levofloxacin, levofloxacin]
Change in P. aeruginosa density, mean (120 mg QD, Baseline to Day 7): −0.70 log10 CTU/g sputum
Change in P. aeruginosa density, median (120 mg QD, Baseline to Day 7): −0.53 log10 CTU/g sputum
Change in P. aeruginosa density, mean (120 mg QD, Baseline to Day 14): −0.07 log10 CTU/g sputum
Change in P. aeruginosa density, median (120 mg QD, Baseline to Day 14): 0.00 log10 CTU/g sputum
Change in P. aeruginosa density, mean (120 mg QD, Baseline to Day 28): −0.27 log10 CTU/g sputum
Change in P. aeruginosa density, median (120 mg QD, Baseline to Day 28): −0.20 log10 CTU/g sputum
P. aeruginosa density, mean (120 mg QD, Day 1): 7.43 log10 CTU/g sputum
P. aeruginosa density, median (120 mg QD, Day 1): 8.16 log10 CTU/g sputum
P. aeruginosa density, mean (120 mg QD, Day 7): 6.68 log10 CTU/g sputum
P. aeruginosa density, median (120 mg QD, Day 7): 6.98 log10 CTU/g sputum
P. aeruginosa density, mean (120 mg QD, Day 14): 7.33 log10 CTU/g sputum
P. aeruginosa density, median (120 mg QD, Day 14): 8.00 log10 CTU/g sputum
P. aeruginosa density, mean (120 mg QD, Day 28): 7.26 log10 CTU/g sputum
P. aeruginosa density, median (120 mg QD, Day 28): 7.78 log10 CTU/g sputum
Reduction in P. aeruginosa density in sputum (120 mg QD): approximately 58%
Change in P. aeruginosa density, mean (240 mg BID, Baseline to Day 7): −0.97 log10 CTU/g sputum
Change in P. aeruginosa density, median (240 mg BID, Baseline to Day 7): −0.76 log10 CTU/g sputum
Change in P. aeruginosa density, mean (240 mg BID, Baseline to Day 14): −0.81 log10 CTU/g sputum
Change in P. aeruginosa density, median (240 mg BID, Baseline to Day 14): −0.79 log10 CTU/g sputum
Change in P. aeruginosa density, mean (240 mg BID, Baseline to Day 28): −0.66 log10 CTU/g sputum
Change in P. aeruginosa density, median (240 mg BID, Baseline to Day 28): −0.56 log10 CTU/g sputum
P. aeruginosa density, mean (240 mg BID, Day 1): 7.17 log10 CTU/g sputum
P. aeruginosa density, median (240 mg BID, Day 1): 7.90 log10 CTU/g sputum
P. aeruginosa density, mean (240 mg BID, Day 7): 6.16 log10 CTU/g sputum
P. aeruginosa density, median (240 mg BID, Day 7): 6.53 log10 CTU/g sputum
P. aeruginosa density, mean (240 mg BID, Day 14): 6.32 log10 CTU/g sputum
P. aeruginosa density, median (240 mg BID, Day 14): 6.70 log10 CTU/g sputum
P. aeruginosa density, mean (240 mg BID, Day 28): 6.58 log10 CTU/g sputum
P. aeruginosa density, median (240 mg BID, Day 28): 6.48 log10 CTU/g sputum
Reduction in P. aeruginosa density in sputum (240 mg BID): approximately 96%
Change in P. aeruginosa density, mean (240 mg QD, Baseline to Day 7): −0.31 log10 CTU/g sputum
Change in P. aeruginosa density, median (240 mg QD, Baseline to Day 7): −0.18 log10 CTU/g sputum
Change in P. aeruginosa density, mean (240 mg QD, Baseline to Day 14): −0.44 log10 CTU/g sputum
Change in P. aeruginosa density, median (240 mg QD, Baseline to Day 14): −0.10 log10 CTU/g sputum
Change in P. aeruginosa density, mean (240 mg QD, Baseline to Day 28): −0.25 log10 CTU/g sputum
Change in P. aeruginosa density, median (240 mg QD, Baseline to Day 28): −0.39 log10 CTU/g sputum
P. aeruginosa density, mean (240 mg QD, Day 1): 7.08 log10 CTU/g sputum
P. aeruginosa density, median (240 mg QD, Day 1): 7.97 log10 CTU/g sputum
P. aeruginosa density, mean (240 mg QD, Day 7): 6.79 log10 CTU/g sputum
P. aeruginosa density, median (240 mg QD, Day 7): 6.95 log10 CTU/g sputum
P. aeruginosa density, mean (240 mg QD, Day 14): 6.63 log10 CTU/g sputum
P. aeruginosa density, median (240 mg QD, Day 14): 6.46 log10 CTU/g sputum
P. aeruginosa density, mean (240 mg QD, Day 28): 6.82 log10 CTU/g sputum
P. aeruginosa density, median (240 mg QD, Day 28): 7.38 log10 CTU/g sputum
Reduction in P. aeruginosa density in sputum (240 mg QD): approximately 74%
Largest difference in P. aeruginosa density, placebo vs levofloxacin (Day 7): 1.44 log10 CFU/g sputum
Largest difference in P. aeruginosa density, placebo vs levofloxacin (Day 14): 1.39 log10 CFU/g sputum
Largest difference in P. aeruginosa density, placebo vs levofloxacin (Day 28): 1.78 log10 CFU/g sputum
Change in P. aeruginosa density, mean [1]: −0.65 log10 CTU/g sputum
Change in P. aeruginosa density, median [1]: −0.35 log10 CTU/g sputum
Change in P. aeruginosa density, mean [2]: −0.63 log10 CTU/g sputum
Change in P. aeruginosa density, median [2]: −0.40 log10 CTU/g sputum
Change in P. aeruginosa density, mean [3]: −0.46 log10 CTU/g sputum
Change in P. aeruginosa density, median [3]: −0.5 log10 CTU/g sputum
P. aeruginosa density, mean [4]: 7.12 log10 CTU/g sputum
P. aeruginosa density, median [4]: 7.91 log10 CTU/g sputum
P. aeruginosa density, mean [5]: 6.47 log10 CTU/g sputum
P. aeruginosa density, median [5]: 6.69 log10 CTU/g sputum
P. aeruginosa density, mean [6]: 6.48 log10 CTU/g sputum
P. aeruginosa density, median [6]: 6.61 log10 CTU/g sputum
P. aeruginosa density, mean [7]: 6.70 log10 CTU/g sputum
P. aeruginosa density, median [7]: 6.90 log10 CTU/g sputum
